In patent US20160102093A1, “CO-PROCESSING METHOD AND FORMULATION FOR HIV ATTACHMENT INHIBITOR PRODRUG COMPOUND AND EXCIPIENTS” (BRISTOL-MYERS SQUIBB COMPANY, priority 2011, published 2016):

Experiments:
Assay type in all cases: physicochemical
Settings in all cases: unprocessed API vs. co-processed prodrug/HPMC batches from Example 1
Powder flow = experiment: Powder flow
Tapped density of powder = experiment: Tapped density of powder
Bulk density of powder = experiment: Bulk density of powder

In the case of `COc1cnc(-n2cnc(C)n2)c2c1c(C(=O)C(=O)N1CCN(C(=O)c3ccccc3)CC1)cn2COP(=O)(O)O` [API, 1-benzoyl-4-[2-[4-methoxy-7-(3-methyl-1H-1,2,4-triazol-1-yl)-1-[(phosphonooxy)methyl]-1H-pyrrolo[2,3-c]pyridin-3-yl]-1,2-dioxoethyl]-piperazine], the Flow (Powder flow) is reported as “incomplete”, the “Volumetric Flow” value (Powder flow) is reported as “incomplete” and the “Tapped Density” value (Tapped density of powder) is reported as 0.23 g/cc. The “Bulk Density” value (Bulk density of powder) was 0.13 g/cc.
